Values joined by “and” are separate entries in the source; they are usually repeats but may differ in a detail not shown here. Identical values can stand only once.
Tested on: 855422-203-R-J1-PDC complex spheroid growth
Test: Anticancer human tumor 855422-203-R-J1-PDC patient-derived bladder carcinoma cell line growth inhibition [AhR]
Conditions: for viability, T/C: stronger effect = lower value
How it was run: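 Spheroids combined tumor cells with HUVEC endothelial cells and human MSCs as stroma. AhR antagonists were paired with standard or investigational drugs, each dosed in half-log steps down from near clinical Cmax, or from 10 microM where Cmax was unknown.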

[1] = curve of first compound, second compound 0.1 µM
[2] = curve of first compound, second compound 0.316 µM
[3] = curve of first compound, second compound 1 µM
[4] = curve of first compound, second compound 3.16 µM
[5] = curve of first compound, second compound 10 µM
[6] = second compound 0.1 µM, first compound 0.0316 µM
[7] = second compound 0.1 µM, first compound 0.1 µM
[8] = second compound 0.316 µM, first compound 0.0316 µM
[9] = second compound 0.316 µM, first compound 0.1 µM
[10] = second compound 1 µM, first compound 0.0316 µM
[11] = second compound 1 µM, first compound 0.1 µM
[12] = second compound 3.16 µM, first compound 0.0316 µM
[13] = second compound 3.16 µM, first compound 0.1 µM
[14] = second compound 10 µM, first compound 0.0316 µM
[15] = second compound 10 µM, first compound 0.1 µM
[16] = second compound 0.1 µM, first compound 0.316 µM
[17] = second compound 0.1 µM, first compound 1 µM
[18] = second compound 0.1 µM, first compound 3.16 µM
[19] = second compound 0.1 µM, first compound 10 µM
[20] = second compound 0.316 µM, first compound 0.316 µM
[21] = second compound 0.316 µM, first compound 1 µM
[22] = second compound 0.316 µM, first compound 3.16 µM
[23] = second compound 0.316 µM, first compound 10 µM
[24] = second compound 1 µM, first compound 0.316 µM
[25] = second compound 1 µM, first compound 1 µM
[26] = second compound 1 µM, first compound 3.16 µM
[27] = second compound 1 µM, first compound 10 µM
[28] = second compound 3.16 µM, first compound 0.316 µM
[29] = second compound 3.16 µM, first compound 1 µM
[30] = second compound 3.16 µM, first compound 3.16 µM
[31] = second compound 3.16 µM, first compound 10 µM
[32] = second compound 10 µM, first compound 0.316 µM
[33] = second compound 10 µM, first compound 1 µM
[34] = second compound 10 µM, first compound 3.16 µM
[35] = second compound 10 µM, first compound 10 µM
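Also: spheroids exposed to agents for seven days before readout.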
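For viability, T/C in this document: percent of DMSO vehicle control luminescence viability.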

## Cn1ncnc1C1c2n[nH]c(=O)c3cc(F)cc(c23)NC1c1ccc(F)cc1 (configuration not stated) + CC(CO)NC(=O)c1cc(-c2ccc(Cl)cc2)nn(-c2cnn(C)c2)c1=O
[1]
  IC50: > 0.1 µM
[2]
  IC50: > 0.1 µM
[3]
  IC50: > 0.1 µM
[4]
  IC50: > 0.1 µM
[5]
  IC50: > 0.1 µM
Second compound 0.1 µM, first compound 0.000316 µM
  viability, T/C: 93.4%
Second compound 0.1 µM, first compound 0.001 µM
  viability, T/C: 96.2%
Second compound 0.1 µM, first compound 0.00316 µM
  viability, T/C: 99.3%
Second compound 0.1 µM, first compound 0.01 µM
  viability, T/C: 92.4%
[6]
  viability, T/C: 105%
[7]
  viability, T/C: 84.9%
Second compound 0.316 µM, first compound 0.000316 µM
  viability, T/C: 96.4%
Second compound 0.316 µM, first compound 0.001 µM
  viability, T/C: 104%
Second compound 0.316 µM, first compound 0.00316 µM
  viability, T/C: 98.6%
Second compound 0.316 µM, first compound 0.01 µM
  viability, T/C: 107%
[8]
  viability, T/C: 100%
[9]
  viability, T/C: 89.3%
Second compound 1 µM, first compound 0.000316 µM
  viability, T/C: 109%
Second compound 1 µM, first compound 0.001 µM
  viability, T/C: 105%
Second compound 1 µM, first compound 0.00316 µM
  viability, T/C: 96.2%
Second compound 1 µM, first compound 0.01 µM
  viability, T/C: 109%
[10]
  viability, T/C: 99%
[11]
  viability, T/C: 107%
Second compound 3.16 µM, first compound 0.000316 µM
  viability, T/C: 101%
Second compound 3.16 µM, first compound 0.001 µM
  viability, T/C: 107%
Second compound 3.16 µM, first compound 0.00316 µM
  viability, T/C: 102%
Second compound 3.16 µM, first compound 0.01 µM
  viability, T/C: 103%
[12]
  viability, T/C: 105%
[13]
  viability, T/C: 110%
Second compound 10 µM, first compound 0.000316 µM
  viability, T/C: 105%
Second compound 10 µM, first compound 0.001 µM
  viability, T/C: 102%
Second compound 10 µM, first compound 0.00316 µM
  viability, T/C: 95.4%
Second compound 10 µM, first compound 0.01 µM
  viability, T/C: 103%
[14]
  viability, T/C: 106%
[15]
  viability, T/C: 94%

## CC1(C)CCC(CN2CCN(c3ccc(C(=O)NS(=O)(=O)c4ccc(NCC5CCOCC5)c([N+](=O)[O-])c4)c(Oc4cnc5[nH]ccc5c4)c3)CC2)=C(c2ccc(Cl)cc2)C1 + Cc1cncc(-c2nc(NCCc3c[nH]c4ccccc34)c3ncn(C(C)C)c3n2)c1
[1]
  IC50: 6.14 µM
[2]
  IC50: 5.81 µM
[3]
  IC50: 5.45 µM
[4]
  IC50: 4.53 µM
[5]
  IC50: < 0.0316 µM
[6]
  viability, T/C: 93.9%
[7]
  viability, T/C: 92.2%
[16]
  viability, T/C: 98.1%
[17]
  viability, T/C: 117%
[18]
  viability, T/C: 108%
[19]
  viability, T/C: 11.9%
[8]
  viability, T/C: 94.2%
[9]
  viability, T/C: 91.1%
[20]
  viability, T/C: 85.8%
[21]
  viability, T/C: 90.3%
[22]
  viability, T/C: 98.2%
[23]
  viability, T/C: 12.6%
[10]
  viability, T/C: 83%
[11]
  viability, T/C: 96.7%
[24]
  viability, T/C: 83.7%
[25]
  viability, T/C: 76.7%
[26]
  viability, T/C: 84.8%
[27]
  viability, T/C: 11.3%
[12]
  viability, T/C: 76.2%
[13]
  viability, T/C: 80.7%
[28]
  viability, T/C: 77.7%
[29]
  viability, T/C: 60.8%
[30]
  viability, T/C: 69.5%
[31]
  viability, T/C: 13.8%
[14]
  viability, T/C: 38%
[15]
  viability, T/C: 30.6%
[32]
  viability, T/C: 22.1%
[33]
  viability, T/C: 14.7%
[34]
  viability, T/C: 24.5%
[35]
  viability, T/C: 10.5%

## Cn1ncnc1C1c2n[nH]c(=O)c3cc(F)cc(c23)NC1c1ccc(F)cc1 (configuration not stated)
Compound 0.000316 µM
  viability, T/C: 98.3% and 105% and 99%
Compound 0.001 µM
  viability, T/C: 92.9% and 104% and 110%
Compound 0.00316 µM
  viability, T/C: 86.6% and 106% and 105%
Compound 0.01 µM
  viability, T/C: 104% and 98.8% and 103%
Compound 0.0316 µM
  viability, T/C: 99.4% and 102% and 95.6%
Compound 0.1 µM
  viability, T/C: 82.4% and 101% and 98.5%
Curve of compound
  IC50: > 0.1 µM

## COc1cc(Nc2ncc3c(n2)-c2ccc(Cl)cc2C(c2c(F)cccc2OC)=NC3)ccc1C(=O)O + Cc1ccccc1N=Nc1ccc(NC(=O)c2ccnn2C)c(C)c1
[1]
  IC50: > 10 µM
[2]
  IC50: > 10 µM
[3]
  IC50: > 10 µM
[4]
  IC50: > 10 µM
[5]
  IC50: > 10 µM
[6]
  viability, T/C: 109%
[7]
  viability, T/C: 108%
[16]
  viability, T/C: 88.9%
[17]
  viability, T/C: 85.1%
[18]
  viability, T/C: 77.7%
[19]
  viability, T/C: 73%
[8]
  viability, T/C: 105%
[9]
  viability, T/C: 109%
[20]
  viability, T/C: 93.4%
[21]
  viability, T/C: 92.8%
[22]
  viability, T/C: 85.9%
[23]
  viability, T/C: 68.7%
[10]
  viability, T/C: 114%
[11]
  viability, T/C: 113%
[24]
  viability, T/C: 98.7%
[25]
  viability, T/C: 84.3%
[26]
  viability, T/C: 78.1%
[27]
  viability, T/C: 76.8%
[12]
  viability, T/C: 105%
[13]
  viability, T/C: 106%
[28]
  viability, T/C: 87.3%
[29]
  viability, T/C: 79.4%
[30]
  viability, T/C: 79.5%
[31]
  viability, T/C: 68.3%
[14]
  viability, T/C: 87.8%
[15]
  viability, T/C: 88.8%
[32]
  viability, T/C: 81.7%
[33]
  viability, T/C: 89.7%
[34]
  viability, T/C: 79.2%
[35]
  viability, T/C: 71.2%

Reference: PubChem BioAssay AID1919005 (Molecular Pharmacology Branch, DTP, NCI, 2023)
